Here are results for two compounds from ChEMBL document CHEMBL1149820, “Synthesis, properties and photodynamic inactivation of Escherichia coli by novel cationic fullerene C60 derivatives” (2008).

Assay type in all cases: functional
Assay [1] has as its system Escherichia coli. As to the kind of experiment: Photoinactivation of Escherichia coli EC7 at 1 uM after 5 mins of irradiation.
Assay [2] relates to Escherichia coli. Put plainly: Photoinactivation of Escherichia coli EC7 assessed as log reduction of cell survival at 5 uM after 30 mins of irradiation.
For assay [3], the system named is Escherichia coli. Put plainly: Photoinactivation of Escherichia coli EC7 at 1 uM after 20 mins of irradiation.

`Cc1ccc(-c2c3nc(c(-c4ccc([N+](C)(C)C)cc4)c4ccc([nH]4)c(-c4ccc([N+](C)(C)C)cc4)c4nc(c(-c5ccc(C)cc5)c5ccc2[nH]5)C=C4)C=C3)cc1.[I-].[I-]` yielded an Activity with Escherichia coli [1] of 70%. In addition, the Survival in the assay on Escherichia coli [2] was found to be 3.2.

Consider `C[N+](C)(C)CCCOc1ccc(-c2c3nc(c(-c4ccc(C(F)(F)F)cc4)c4ccc([nH]4)c(-c4ccc(OCCC[N+](C)(C)C)cc4)c4nc(c(-c5ccc(C(F)(F)F)cc5)c5ccc2[nH]5)C=C4)C=C3)cc1.[I-].[I-]`, for which, in the assay with Escherichia coli [3], the Activity is 87%.
